Several values for one entry are separate records, joined by “and”; a condition that tells them apart may be missing. Equal values may be shown once. Read-outs that look alike come from different tables or passages of the source. Values belong to the molecule of their own block, whether it stands above or below them.
Tests used:
[1] = tested on: B. subtilis; experiment: Minimum inhibitory concentration (MIC), 96-well plates, serial dilutions in LB medium; format: cell-based; settings: Bacillus subtilis, read-out: Minimum inhibitory concentration (MIC)
Description: (§1) Example 12: Determination of the Minimum Inhibitory Concentration (MIC) with Non-Pathogenic E. coli and B. subtilis and/or Pathogenic Strains of S. aureus Including Three MRSA Strains (USA 300, Mu50 and DSM18827) as Well as the Pathogenic Fungus Candida albicans
(§2) Minimum inhibitory concentrations (MIC) for compounds 1 to 11 with non-pathogenic E. coli and B. subtilis and/or pathogenic strains of S. aureus including three MRSA strains (USA 300, Mu50 and DSM18827) as well as the pathogenic fungus Candida albicans were determined in 96-well plates with serial dilutions in LB medium.

[2] = tested on: S. aureus NCTC 8325; experiment: as above; format: cell-based; settings: Staphylococcus aureus
Description: as §1, §2

[3] = tested on: E. coli K12; experiment: as above; format: cell-based; settings: Escherichia coli
Description: as §1, §2

[4] = tested on: S. aureus DSM18827 (MRSA); experiment: as above; format: cell-based; settings: Staphylococcus aureus, DSM 11827 / DSM 18827 / MRSA, read-out: Minimum inhibitory concentration (MIC)
Description: as §1, §2

[5] = tested on: Candida albicans; experiment: as above; format: cell-based; settings: read-out: Minimum inhibitory concentration (MIC)
Description: as §1, §2

[6] = tested on: S. aureus Mu50 (MRSA); experiment: as above; format: cell-based; settings: Staphylococcus aureus, read-out: Minimum inhibitory concentration (MIC)
Description: as §1, §2

[7] = tested on: human embryonic kidney cell line HEK-293; experiment: Toxicological testing, viability by resazurin reduction after 24 h; format: cell-based; settings: HEK-293, 0-100 μM tested
Experimental: Example 13: Toxicological Testing with Human Embryonic Kidney Cell Line HEK-293
Compounds 3, 5, and 10 were toxicologically tested with human embryonic kidney cell line HEK-293 at concentrations varying from 0 to 100 μM (cf. FIGS. 1 to 3). The viability was measured by resazurin reduction after 24 h.

[8] = tested on: developing neurons (LUHMES d2-3); experiment: Toxicological testing with developing neurons in the LUHMES d2-3 assay; format: cell-based; settings: 0-100 μM tested
Experimental: Example 14: Toxicological Testing with Developing Neurons in the LUHMES d2-3 Assay
Compounds 3, 5, and 10 were toxicologically tested with developing neurons in the LUHMES d2-3 assay at concentrations varying from 0 to 100 μM (cf. FIGS. 4 to 6). […] In the case of compound 5 (cf. FIG. 5), general cytotoxicity (orange line) and inhibition of neurite outgrowth each started above 40 μM (green line). For compound 10 (cf. FIG. 6), general cytotoxicity (orange line) started at 80 μM and inhibition of neurite outgrowth started at 40 μM (green line).

[9] = tested on: S. aureus USA 300 (MRSA); experiment: Minimum inhibitory concentration (MIC), 96-well plates, serial dilutions in LB medium; format: cell-based; settings: Staphylococcus aureus, read-out: Minimum inhibitory concentration (MIC)
Description: as §1, §2
Example 21: Determination of the Minimum Inhibitory Concentration (MIC) for the Compounds Represented by the Formulas (14) and (16) with the Pathogenic USA 300 (MRSA) Strain of S. aureus
Minimum inhibitory concentrations (MIC) for the compounds represented by the Formulas (14) and (16) with the pathogenic MRSA strains of S. aureus USA 300 were determined in 96-well plates with serial dilutions in LB medium.

[10] = tested on: Neisseria gonorrhoeae; experiment: Growth curves in comparison to an untreated and a DMSO treated control; format: cell-based
Experimental: Example 24: Determination of the Inhibitory Effect of 1-S-PQS (5) and the Compound Represented by the Formula (14) Against Neisseria gonorrhoeae by Measuring Growth Curves in Comparison to an Untreated and a DMSO Treated Control
The inhibitory effect of 1-S-PQS (5) and the compound represented by the Formula (14) against Neisseria gonorrhoeae was determined by measuring growth curves in comparison to an untreated and a DMSO treated control (cf. FIGS. 17 to 19). […] The compound represented by the Formula (14) was effective against N. gonorrhoeae around 25-50 μM (cf. FIG. 19).

[11] = tested on: Moraxella catarrhalis; experiment: as above; format: cell-based
Experimental: (§3) Example 22: Determination of the Inhibitory Effect of 1-S-PQS (5) Against Moraxella catarrhalis and Neisseria meningitidis by Measuring Growth Curves in Comparison to an Untreated and a DMSO Treated Control
(§4) The inhibitory effect of 1-S-PQS (5) against Moraxella catarrhalis and Neisseria meningitidis was determined by measuring growth curves in comparison to an untreated and a DMSO treated control (cf. FIGS. 11 to 14). […] M. catarrhalis is an important human pathogen responsible for otitis media in children and chronic obstructive pulmonary disease (COPD) in adults.
Example 23: Determination of the Inhibitory Effect of the Compound Represented by the Formula (14) Against Moraxella catarrhalis by Measuring Growth Curves in Comparison to an Untreated and a DMSO Treated Control
The inhibitory effect of the compound represented by the Formula (14) against Moraxella catarrhalis was determined by measuring growth curves in comparison to an untreated and a DMSO treated control (cf. FIGS. 15 and 16).

[12] = tested on: Neisseria meningitidis; experiment: as above; format: cell-based
Experimental: as §3, §4

[13] = target: elastase (LasB) (Pseudomonas aeruginosa, UniProt P14756); experiment: In vitro elastase assay with fluorogenic substrate Abz-peptide-Nba; format: biochemical, P. aeruginosa
Experimental: Example 16: In Vitro Inhibition of Elastase (LasB) with Compounds 6, 7, and 12
An in-vitro elastase assay was performed according to Cathcart et al. (G. R. Cathcart, B. F. Gilmore, B. Greer, P. Harriott, B. Walker, Bioorganic & medicinal chemistry letters 2009, 19, 6230-6232). For a typical in vitro elastase assay 82 μL buffer (0.05 M TRIS HCl, 2.5 mM CaCl2, pH=7.2) and 5 μL of compound 6 solved in DMSO were added in a 96 well plate. 10 μL of 3 μg/mL elastase (solved in the same Tris/CaCl2 buffer) were added and mixed with the compound. After incubation for 10 min at room temperature, 3 μL fluorogenic substrate Abz-peptide-Nba (2-aminobenzoyl-Ala-Gly-Leu-Ala-4-nitrobenzylamide) in DMF were added and the fluorescence measured for 90 min in one minute steps (excitation at 330 nm, emission at 460 nm). The slope of the resulting graph was used to calculate the enzymatic activity.

[14] = tested on: S. aureus Mu50 (MRSA); settings: cited from earlier work; for MIC of known antibiotics: comparison values
[15] = NCTC8325, read-out: Minimum inhibitory concentration (MIC)
[16] = NCTC8325, S. aureus NCTC 8325, LB medium, read-out: Minimum inhibitory concentration (MIC)
[17] = S. aureus DSM18827 (also printed DSM11827), MRSA, LB medium
[18] = S. aureus Mu50 (MRSA), LB medium
[19] = 5 μM was the lowest concentration tested
[20] = S. aureus USA 300 (MRSA), LB medium

Chain of elastase (LasB) (P14756 198-498): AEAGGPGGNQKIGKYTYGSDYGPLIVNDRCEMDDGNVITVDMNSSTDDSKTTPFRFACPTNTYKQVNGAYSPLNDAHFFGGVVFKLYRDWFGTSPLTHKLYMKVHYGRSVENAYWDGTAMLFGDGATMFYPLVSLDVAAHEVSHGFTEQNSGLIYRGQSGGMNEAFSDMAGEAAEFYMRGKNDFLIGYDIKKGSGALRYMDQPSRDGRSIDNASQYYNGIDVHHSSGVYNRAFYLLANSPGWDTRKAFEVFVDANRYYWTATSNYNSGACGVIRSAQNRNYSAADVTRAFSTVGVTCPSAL

Compound: CCCCCCCc1cc(=O)c2ccccc2[nH]1 [Compound 1, 2-heptyl-4-quinolone, reference compound]
- MIC [1]: > 1000 µM and > 243 µg/mL
- MIC [2, 15]: > 1000 µM and > 243 µg/mL
- MIC [3]: > 1000 µM and > 243 µg/mL

Compound: CCCCCCCc1cc(=O)c2ccccc2[te]1 [Compound 2, 2-heptyl-4H-tellurochromen-4-one]
- MIC [1]: 100 µM to 250 µM and 36 µg/mL to 89 µg/mL

Compound: CCCCCCCc1c/c(=N/O)c2ccccc2[nH]1 [Compound 3, 2-heptylquinolin-4(1H)-one oxime]
- MIC [1]: 50 µM and 12.9 µg/mL
- MIC [2, 15]: 60 µM and 15.5 µg/mL
- MIC [3]: 300 µM and 78 µg/mL
- MIC [4]: 60 µM and 15.5 µg/mL
- MIC [5]: 100 µM and 25.8 µg/mL
- MIC ([6]; MRSA): 60 µM and 15.5 µg/mL
- Concentration at which cell toxicity starts [7]: 40 µM
- Concentration at which general cytotoxicity starts [8]: above 10 μM
- Concentration at which inhibition of neurite outgrowth starts [8]: above 2.5 μM
- MIC [9]: 60 µM and 15.5 µg/mL

Compound: CCCCCCCc1[nH]c2ccccc2c(=O)c1O [Compound 4, 2-heptyl-3-hydroxy-4-quinolone, reference compound]
- MIC [1]: > 1000 µM and > 259 µg/mL
- MIC [2, 15]: > 1000 µM and > 259 µg/mL
- MIC [3]: > 1000 µM and > 259 µg/mL

- MIC ([1]; B. subtilis, LB medium): 25 µM and 6.91 µg/mL
- MIC [2, 16]: 30 µM and 8.29 µg/mL
- MIC [4, 17]: 35 µM and 9.67 µg/mL
- MIC [6, 18]: 25 µM and 6.91 µg/mL
- MIC [9, 20]: 30 µM and 8.29 µg/mL
Compound: CCCCCCCc1sc2ccccc2c(=O)c1O [Compound 5, 2-heptyl-3-hydroxy-4H-thiochromen-4-one]
- Concentration at which growth was completely inhibited [10]: 25 µM
- Growth relative to DMSO control ([11]; 5 μM): 0.1
- Concentration at which growth was completely inhibited [11, 19]: ≤ 5 µM
- Growth relative to DMSO control ([11]; 10 μM): 0.0
- Growth relative to DMSO control ([11]; 25 μM): 0.0
- Growth relative to DMSO control ([11]; 50 μM): 0.0
- Concentration at which growth was completely inhibited ([11]; lowest concentration tested (5 μM) expressed in μg/mL): ≤ 1.4 µg/mL
- Concentration at which general cytotoxicity starts [8]: above 40 μM
- Concentration at which inhibition of neurite outgrowth starts [8]: above 40 μM
- Concentration at which growth was completely inhibited [12]: 10 µM
- Growth relative to DMSO control ([12]; 5 μM): 0.4
- Growth relative to DMSO control ([12]; 10 μM): 0.0
- Growth relative to DMSO control ([12]; 25 μM): 0.0
- Growth relative to DMSO control ([12]; 50 μM): 0.0

Compound: CCCCCCCc1oc2ccccc2c(=S)c1O [Compound 7, 2-heptyl-3-hydroxy-4H-chromene-4-thione]
- MIC [2, 16]: 60 µM and 16.6 µg/mL
- MIC [4, 17]: 72.5 µM and 20 µg/mL
- MIC [6, 18]: 50 µM and 13.8 µg/mL
- IC50 [13]: 2000 nM
- MIC [9, 20]: 60 µM and 16.6 µg/mL

Compound: CCCCCCCc1[nH]c2ccccc2/c(=N\O)c1O [Compound 8, 2-heptyl-3-hydroxyquinolin-4(1H)-one oxime]
- MIC [2, 15]: 200 µM and 54.9 µg/mL
- MIC [4]: 150 µM and 41.1 µg/mL
- MIC ([6]; MRSA): 100 µM and 27.4 µg/mL
- MIC [9]: 100 µM and 27.4 µg/mL

Compound: Cc1sc2ccccc2c(=O)c1O [Compound 9, 3-hydroxy-2-methyl-thiochromen-4-one]
- MIC [2, 15]: > 1000 µM and > 192 µg/mL
- MIC [4]: > 1000 µM and > 192 µg/mL
- MIC ([6]; MRSA): > 1000 µM and > 192 µg/mL
- MIC [9]: > 1000 µM and > 192 µg/mL

- MIC [2, 16]: 50 µM and 11.7 µg/mL
- MIC [4, 17]: 50 µM and 11.7 µg/mL
- MIC [6, 18]: 50 µM and 11.7 µg/mL
- MIC [9, 20]: 50 µM and 11.7 µg/mL
Compound: CCCCc1sc2ccccc2c(=O)c1O [Compound 10, 3-hydroxy-2-butyl-thiochromen-4-one]
- Concentration at which general cytotoxicity starts [8]: 80 µM
- Concentration at which inhibition of neurite outgrowth starts [8]: 40 µM

- MIC [2, 16]: 35 µM and 10.3 µg/mL
- MIC [4, 17]: 40 µM and 11.8 µg/mL
- MIC [6, 18]: 40 µM and 11.8 µg/mL
- MIC [9, 20]: 35 µM and 10.3 µg/mL
Compound: CCCCCCCc1sc2ccc(F)cc2c(=O)c1O [Compound 11, 6-fluoro-2-heptyl-3-hydroxy-4H-thiochromen-4-one]

Compound: CCCCCCCc1sc2ccccc2c(=S)c1O [Compound 12, 2-heptyl-3-hydroxy-4H-thiochromene-4-thione]
- IC50 [13]: 2000 nM

- MIC [9, 20]: 40 µM and 11.3 µg/mL
Compound: O=c1c(O)c(CCc2ccccc2)sc2ccccc12 [Formula (14)]
- Concentration at which the compound was effective [10]: 25 to 50 µM
- Concentration at which growth was completely inhibited [11, 19]: ≤ 5 µM

- MIC [9, 20]: > 100 µM and > 32 µg/mL
Compound: CCCCCCCCCCc1sc2ccccc2c(=O)c1O [Formula (16)]

Compound: CC1(C)S[C@@H]2[C@H](NC(=O)[C@H](N)c3ccccc3)C(=O)N2[C@H]1C(=O)O [ampicillin]
- MIC of known antibiotics [14]: 37 µg/mL

Compound: O=C(O)c1cn(C2CC2)c2cc(N3CCNCC3)c(F)cc2c1=O [ciprofloxacin]
- MIC of known antibiotics [14]: 66 µg/mL

Compound: CC[C@H]1OC(=O)[C@H](C)[C@@H](O[C@H]2C[C@@](C)(OC)[C@@H](O)[C@H](C)O2)[C@H](C)[C@@H](O[C@@H]2O[C@H](C)C[C@H](N(C)C)[C@H]2O)[C@](C)(O)C[C@@H](C)C(=O)[C@H](C)[C@@H](O)[C@]1(C)O [erythromycin]
- Concentration to inhibit growth (commercial antibiotics) ([14]; background section): > 1 mM

Reference: patent publication US10961196B2, “Compounds for use as an anti-bacterial or anti-fungal agent and as a zinc sensor” (UNIVERSITÄT KONSTANZ, priority 2016, dated 2021)
